Reference: the NIST ThermoML archive (doi:10.1016/j.fluid.2014.09.020)

Assay: mn = molality of the nth substance listed, in mol/kg
Conditions: 101 kPa, Liquid; for viscosity: Capillary tube (Ostwald / Ubbelohde) method; for electrical conductivity: Direct current cell with electrodes; for mass density: Vibrating tube method

CCC[N+]1(C)CCCCC1.[Br-] [1-methyl-1-propylpiperidinium bromide] + O
Conditions	electrical conductivity [S/m]	mass density [kg/m3]	viscosity [mPa·s]
293.15 K, m1 = 0.2501	1.61	1008.72	1.291
293.15 K, m1 = 0.5	2.44	1018.24	1.402
293.15 K, m1 = 0.75	3.08	1027.42	1.529
293.15 K, m1 = 0.9998	3.57	1036.22	1.669
293.15 K, m1 = 1.25	3.91	1044.44	1.84
293.15 K, m1 = 1.5	4.14	1052.29	2.03
293.15 K, m1 = 1.75	4.29	1059.77	2.216
293.15 K, m1 = 2.001	4.38	1066.77	2.419
293.15 K, m1 = 2.2	4.41	1072.13	2.604
293.15 K, m1 = 2.4	4.44	1077.21	2.792
298.15 K, m1 = 0.2501	1.75	1007.5	1.178
298.15 K, m1 = 0.5	2.64	1016.88	1.259
298.15 K, m1 = 0.75	3.33	1025.92	1.356
298.15 K, m1 = 0.9998	3.86	1034.59	1.466
298.15 K, m1 = 1.25	4.23	1042.69	1.607
298.15 K, m1 = 1.5	4.48	1050.42	1.769
298.15 K, m1 = 1.75	4.65	1057.79	1.922
298.15 K, m1 = 2.001	4.76	1064.7	2.091
298.15 K, m1 = 2.2	4.81	1069.98	2.249
298.15 K, m1 = 2.4	4.85	1074.98	2.408
303.15 K, m1 = 0.2501	1.9	1006.09	1.044
303.15 K, m1 = 0.5	2.83	1015.33	1.116
303.15 K, m1 = 0.75	3.57	1024.23	1.203
303.15 K, m1 = 0.9998	4.14	1032.75	1.302
303.15 K, m1 = 1.25	4.54	1040.75	1.424
303.15 K, m1 = 1.5	4.82	1048.38	1.559
303.15 K, m1 = 1.75	5.04	1055.64	1.688
303.15 K, m1 = 2.001	5.18	1062.46	1.827
303.15 K, m1 = 2.2	5.24	1067.67	1.951
303.15 K, m1 = 2.4	5.3	1072.61	2.073
308.15 K, m1 = 0.2501	2.04	1004.66	0.9225
308.15 K, m1 = 0.5	3.03	1013.72	0.9723
308.15 K, m1 = 0.75	3.82	1022.62	1.037
308.15 K, m1 = 0.9998	4.43	1030.82	1.113
308.15 K, m1 = 1.25	4.86	1038.67	1.206
308.15 K, m1 = 1.5	5.16	1046.1	1.311
308.15 K, m1 = 1.75	5.4	1053.72	1.417
308.15 K, m1 = 2.001	5.57	1060.11	1.53
308.15 K, m1 = 2.2	5.65	1065.32	1.629
308.15 K, m1 = 2.4	5.72	1070.23	1.728

CCCC[N+]1(C)CCCCC1.[Br-] [N-butyl-N-methylpiperidinium bromide] + O
Conditions	electrical conductivity [S/m]	mass density [kg/m3]	viscosity [mPa·s]
293.15 K, m1 = 0.25	1.58	1008.15	1.271
293.15 K, m1 = 0.5006	2.29	1017.18	1.451
293.15 K, m1 = 0.7499	2.83	1025.78	1.631
293.15 K, m1 = 0.9999	3.23	1034.01	1.819
293.15 K, m1 = 1.25	3.5	1041.71	2.004
293.15 K, m1 = 1.5	3.66	1049.03	2.199
293.15 K, m1 = 1.75	3.77	1055.94	2.422
293.15 K, m1 = 2	3.83	1062.38	2.663
293.15 K, m1 = 2.2	3.85	1067.29	2.863
293.15 K, m1 = 2.4	3.87	1071.91	3.084
298.15 K, m1 = 0.25	1.64	1006.6	1.114
298.15 K, m1 = 0.5006	2.44	1015.55	1.283
298.15 K, m1 = 0.7499	3.04	1024.1	1.442
298.15 K, m1 = 0.9999	3.49	1032.29	1.598
298.15 K, m1 = 1.25	3.78	1039.86	1.75
298.15 K, m1 = 1.5	3.96	1047.06	1.907
298.15 K, m1 = 1.75	4.08	1053.87	2.087
298.15 K, m1 = 2	4.15	1060.17	2.287
298.15 K, m1 = 2.2	4.17	1064.99	2.457
298.15 K, m1 = 2.4	4.2	1069.52	2.649
303.15 K, m1 = 0.25	1.77	1004.71	0.9885
303.15 K, m1 = 0.5006	2.61	1013.61	1.133
303.15 K, m1 = 0.7499	3.26	1022.18	1.266
303.15 K, m1 = 0.9999	3.75	1030.35	1.394
303.15 K, m1 = 1.25	4.09	1037.65	1.528
303.15 K, m1 = 1.5	4.32	1044.94	1.67
303.15 K, m1 = 1.75	4.48	1051.69	1.812
303.15 K, m1 = 2	4.57	1057.79	1.972
303.15 K, m1 = 2.2	4.6	1062.59	2.119
303.15 K, m1 = 2.4	4.63	1066.98	2.279
308.15 K, m1 = 0.25	1.86	1002.93	0.882
308.15 K, m1 = 0.5006	2.77	1011.89	0.98
308.15 K, m1 = 0.7499	3.47	1020.33	1.078
308.15 K, m1 = 0.9999	4.01	1028.69	1.179
308.15 K, m1 = 1.25	4.39	1035.69	1.282
308.15 K, m1 = 1.5	4.64	1043.08	1.392
308.15 K, m1 = 1.75	4.82	1049.51	1.511
308.15 K, m1 = 2	4.92	1055.41	1.639
308.15 K, m1 = 2.2	4.96	1060.23	1.749
308.15 K, m1 = 2.4	4.99	1064.28	1.868
